How the values were obtained:
[1] = test system: β-6bs mRNA (reporter mRNA); experiment: Tethering of MS2-Upf1, MS2-Upf2, MS2-Upf3 to 3' UTR of reporter mRNA in HeLa cell line, real-time PCR; format: cell-based; conditions: 5 μM for 6 hours or 12 hours; FIGS. 8 and 9
Experimental: An NMD-based search system capable of artificially reducing the amount of reporter mRNA was constructed, after artificially tethering proteins Upf1, Upf2, and Upf3X acting in each step of NMD to 3′ UTR of reporter mRNA (FIG. 7). Using this method, it was attempted to verify which step of NMD the three types of compounds acted on.
After treating the cell line with each compound at 5 μM for 6 hours or 12 hours, a cell extract was obtained. Thereafter, the relative amount of reporter mRNA was measured through real-time PCR.

[2] = test system: dystrophin protein; experiment: Dystrophin protein in DMD patient-derived cell line, Western blotting; format: cell-based, human; conditions: 5 μM for 12 hours, FIG. 11
[3] = test system: HeLa cell line constitutively expressing the NMD-target mRNA (RLuc-beta-globin PTC); experiment: NMD reporter HeLa cell lines (NMD20, NMD4, NMD5), RLuc/FLuc dual luciferase assay; format: cell-based; conditions: 5 μM for 12 hours, FIG. 4
Experimental: In Example 1, a beta-globin normal gene or the gene including a premature termination codon (PTC) found in genetic diseases was inserted into the downstream of a chemiluminescence gene, Renilla luciferase (RLuc). Normal gene-inserted mRNA was not targeted by NMD, whereas when a gene having PTC was inserted, the mRNA became a NMD target, and as a result, mRNA was quickly broken down and the expression level of RLuc was reduced. […]
First, each of the prepared cell lines was treated with caffeine, which was known as a non-specific NMD inhibitor, to confirm the degree of RLuc activity to FLuc activity. […] Then, the expression levels of RLuc and FLuc proteins were measured by dual luciferase assay.
Additionally, it was attempted to determine whether the prepared HeLa cell line was suitable for performing high-throughput screening (HTS). Experiments were performed by optimizing the conditions such as the number of cells, the amounts of used reagent and buffer, and the like in a 384-well format to be suitable for HTS (FIG. 3), and NMD efficiency was measured using Wortmannin, which was a non-specific NMD inhibitor, as a control substance. […]
The NMD inhibitory effect of Compounds 1 to 3 was confirmed using the HeLa cell line prepared in Example 1. […] Then, the amounts of RNA and protein were quantified respectively through real-time PCR and dual luciferase assay methods. […]

[4] = molecular target: T1, UPF1 and UPF2 (Homo sapiens, UniProt Q92900+Q9HAU5); experiment: Effect on binding between UPF1 and UPF2, FLAG-UPF1 immunoprecipitation and western blotting; format: cell-based; conditions: 5 μM for 1 hour; FLAG immunoprecipitation; FIG. 6
T1 construct: expressed in transfected cells
T1 sequence (Q92900 1-1129): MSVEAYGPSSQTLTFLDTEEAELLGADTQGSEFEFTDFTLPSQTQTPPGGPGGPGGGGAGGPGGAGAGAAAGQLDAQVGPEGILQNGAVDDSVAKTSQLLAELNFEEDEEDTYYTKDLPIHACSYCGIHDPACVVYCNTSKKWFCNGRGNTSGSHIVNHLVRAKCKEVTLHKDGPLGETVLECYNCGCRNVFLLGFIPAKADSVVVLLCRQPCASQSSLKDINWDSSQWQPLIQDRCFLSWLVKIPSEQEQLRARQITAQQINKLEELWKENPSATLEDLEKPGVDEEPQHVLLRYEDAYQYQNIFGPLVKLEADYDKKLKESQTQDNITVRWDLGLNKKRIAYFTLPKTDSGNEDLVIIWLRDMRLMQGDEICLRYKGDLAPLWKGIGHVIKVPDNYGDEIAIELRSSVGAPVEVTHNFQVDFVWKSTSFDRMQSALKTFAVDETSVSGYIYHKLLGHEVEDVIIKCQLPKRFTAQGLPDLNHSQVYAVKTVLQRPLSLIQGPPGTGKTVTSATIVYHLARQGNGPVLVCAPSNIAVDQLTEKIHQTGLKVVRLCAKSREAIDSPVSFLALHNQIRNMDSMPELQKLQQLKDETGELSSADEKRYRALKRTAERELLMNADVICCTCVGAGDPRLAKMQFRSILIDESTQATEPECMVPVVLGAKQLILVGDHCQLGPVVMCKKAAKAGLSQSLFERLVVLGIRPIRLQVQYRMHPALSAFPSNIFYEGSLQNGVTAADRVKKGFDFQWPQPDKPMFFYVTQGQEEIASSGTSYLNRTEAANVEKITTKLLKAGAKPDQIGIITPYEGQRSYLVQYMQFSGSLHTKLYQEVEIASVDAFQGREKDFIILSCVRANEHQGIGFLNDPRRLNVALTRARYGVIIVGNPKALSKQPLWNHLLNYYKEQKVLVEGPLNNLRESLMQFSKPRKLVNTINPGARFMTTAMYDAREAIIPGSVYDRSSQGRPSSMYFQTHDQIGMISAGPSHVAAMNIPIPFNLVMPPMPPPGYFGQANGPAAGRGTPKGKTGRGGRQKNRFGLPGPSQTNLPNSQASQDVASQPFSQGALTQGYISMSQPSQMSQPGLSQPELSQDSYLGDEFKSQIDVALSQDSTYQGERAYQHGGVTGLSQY
T1 sequence (Q9HAU5 1-1272): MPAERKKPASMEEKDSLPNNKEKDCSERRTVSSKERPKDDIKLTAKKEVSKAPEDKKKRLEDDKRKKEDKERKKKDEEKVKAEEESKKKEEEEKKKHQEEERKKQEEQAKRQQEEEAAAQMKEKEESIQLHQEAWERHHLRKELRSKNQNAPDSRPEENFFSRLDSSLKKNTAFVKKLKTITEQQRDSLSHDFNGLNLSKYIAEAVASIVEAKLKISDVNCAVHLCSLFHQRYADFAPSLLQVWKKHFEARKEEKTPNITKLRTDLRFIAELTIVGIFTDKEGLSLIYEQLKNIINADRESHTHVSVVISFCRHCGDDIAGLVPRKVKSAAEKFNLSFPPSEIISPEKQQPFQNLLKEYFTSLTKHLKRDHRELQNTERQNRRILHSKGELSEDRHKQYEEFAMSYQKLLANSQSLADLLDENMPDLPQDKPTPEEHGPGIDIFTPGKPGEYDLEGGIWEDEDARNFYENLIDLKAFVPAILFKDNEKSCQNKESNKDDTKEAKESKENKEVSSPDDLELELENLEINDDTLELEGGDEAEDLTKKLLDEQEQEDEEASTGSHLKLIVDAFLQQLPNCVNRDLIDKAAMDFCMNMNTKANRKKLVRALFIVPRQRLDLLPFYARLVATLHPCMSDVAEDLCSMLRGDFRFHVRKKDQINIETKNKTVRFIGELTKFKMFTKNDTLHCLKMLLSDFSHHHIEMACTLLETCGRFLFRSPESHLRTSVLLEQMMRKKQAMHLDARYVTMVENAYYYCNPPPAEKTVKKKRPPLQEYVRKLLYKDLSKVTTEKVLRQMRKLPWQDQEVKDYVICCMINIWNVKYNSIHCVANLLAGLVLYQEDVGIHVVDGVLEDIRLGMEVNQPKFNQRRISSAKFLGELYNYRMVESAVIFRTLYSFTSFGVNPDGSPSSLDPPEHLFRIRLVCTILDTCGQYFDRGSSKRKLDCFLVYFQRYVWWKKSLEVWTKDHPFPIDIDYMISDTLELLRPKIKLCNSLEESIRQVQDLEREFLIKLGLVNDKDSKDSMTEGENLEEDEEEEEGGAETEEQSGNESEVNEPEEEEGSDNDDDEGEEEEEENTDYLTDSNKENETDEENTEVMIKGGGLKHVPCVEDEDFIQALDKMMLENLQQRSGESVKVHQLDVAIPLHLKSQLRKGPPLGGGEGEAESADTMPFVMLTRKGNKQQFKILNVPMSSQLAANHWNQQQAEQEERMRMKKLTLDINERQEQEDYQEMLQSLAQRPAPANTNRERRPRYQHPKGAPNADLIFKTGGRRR
Experimental: In the cell line, DNA expressing FLAG-UPF1 was transiently overexpressed.
After treating the cell line with each compound at 5 μM for 1 hour, a cell extract was obtained. Immunoprecipitation was performed on the cell extract obtained using a FLAG antibody.
Proteins before and after immunoprecipitation were analyzed by western blotting.

[5] = test system: UPF1; experiment: Effect on phosphorylation of UPF1, western blotting; format: cell-based; conditions: 5 μM for 12 hours, FIG. 5
Experimental: Phosphorylation of UPFI was known to be one of the most important factors in NMD. In Example 3.1, the effect of the three types of compounds of the present invention on phosphorylation of UPFI was examined. The cells were treated with each compound at 5 μM for 12 hours, and then total proteins were purified. Then, western blotting was performed using each antibody capable of recognizing Upfl or Upfl phosphorylated at a specific site.

[6] = test system: HeLa cell line constitutively expressing the NMD-target mRNA (RLuc-beta-globin PTC); experiment: NMD reporter HeLa cell line, RLuc mRNA by real-time PCR; format: cell-based; conditions: 5 μM for 12 hours, FIG. 4
Source text: In Example 1, a beta-globin normal gene or the gene including a premature termination codon (PTC) found in genetic diseases was inserted into the downstream of a chemiluminescence gene, Renilla luciferase (RLuc). Normal gene-inserted mRNA was not targeted by NMD, whereas when a gene having PTC was inserted, the mRNA became a NMD target, and as a result, mRNA was quickly broken down and the expression level of RLuc was reduced.
Accordingly, a HeLa cell line constitutively expressing the NMD-target mRNA was prepared, and simultaneously, the cell line was designed to constitutively express a firefly luciferase (FLuc) gene, which was not a target of NMD, and a total of three cell lines NMD20, NMD4, and NMD5 with the same composition were obtained. In order to confirm whether the HeLa cell line prepared above was suitable for measuring NMD efficiency, the following two experiments were performed.
The NMD inhibitory effect of Compounds 1 to 3 was confirmed using the HeLa cell line prepared in Example 1. After treating the cells with Compounds 1 to 3 at 5 μM for 12 hours, respectively, total RNA and protein were purified from the cells, respectively. Then, the amounts of RNA and protein were quantified respectively through real-time PCR and dual luciferase assay methods. The results were illustrated in FIG. 4.

Row | UPF1-UPF2 binding [4] | Structure (SMILES) | NMD step targeted (relative amount of reporter mRNA) [1] | amount of dystrophin protein expressed in cells [2] | protein translation of RLuc [3] | phosphorylation of UPF1 [5] | amount of RLuc mRNA [6]
1 | significantly inhibited | COc1ncc(-c2ccc3nccc(-c4ccnnc4)c3c2)cc1NS(=O)(=O)c1ccc(F)cc1F [Compound 1, 2,4-Difluoro-N-{2-(methyloxy)-5-[4-(4-pyridazinyl)-6-quinolinyl]-3-pyridinyl} benzenesulfonamide] | targeted a UPF1-UPF2 step | increased | increased | did not significantly affect | 
2 | did not significantly affect | Cn1c(=O)n(-c2ccc(C(C)(C)C#N)cc2)c2c3cc(-c4cnc5ccccc5c4)ccc3ncc21 [Compound 2, 2-methyl-2-{4-[3-methyl-2-oxo-8-(quinolin-3-yl)-2,3-dihydro-1H-imidazo[4,5-c]quinolin-1-yl]phenyl} propanenitrile] | did not target the UPF1-UPF2 and UPF2-UPF3 steps |  |  | significantly inhibited | significantly increased
3 | did not significantly affect | COc1cc2ncnc(-n3nc(-c4ccccn4)nc3N)c2cc1OC [Compound 3, 1-(6,7-Dimethoxy-4-quinazolinyl)-3-(2-pyridinyl)-1H-1,2,4-Triazol-5-amine] | did not target the UPF1-UPF2 and UPF2-UPF3 steps |  |  | did not significantly affect | significantly increased
